Source: ChEMBL document CHEMBL1201862, “PubChem BioAssay data set” (2004)
Calls of active or inactive are those of the source.

Experiments:
Hexokinase = biological target: T1, Hexokinase (Trypanosoma brucei, UniProt Q38C41); experiment: Confirmation assay for inhibitors of Trypanosoma brucei hexokinase 1-Analogue-first series. [Related pubchem assays (depositor defined):AID1430, AID1632, AID2516, AID2560, AID2579, AID2600, AID449725, AID492951]; format: functional
T1 sequence (Q38C41 whole entry): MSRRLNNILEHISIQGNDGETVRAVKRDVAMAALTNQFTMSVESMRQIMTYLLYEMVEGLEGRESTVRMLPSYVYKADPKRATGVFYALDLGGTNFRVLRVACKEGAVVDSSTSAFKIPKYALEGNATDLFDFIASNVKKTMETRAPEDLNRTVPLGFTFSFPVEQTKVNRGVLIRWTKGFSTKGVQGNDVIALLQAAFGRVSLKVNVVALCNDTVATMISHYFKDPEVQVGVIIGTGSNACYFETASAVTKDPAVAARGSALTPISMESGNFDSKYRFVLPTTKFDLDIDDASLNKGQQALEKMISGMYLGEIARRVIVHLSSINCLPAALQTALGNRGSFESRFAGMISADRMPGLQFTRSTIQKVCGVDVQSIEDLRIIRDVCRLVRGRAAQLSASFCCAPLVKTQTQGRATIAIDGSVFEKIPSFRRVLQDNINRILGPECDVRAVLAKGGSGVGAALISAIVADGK

[1] = biological target: T2, Ubiquitin-conjugating enzyme E2 N (Homo sapiens, UniProt P61088); format: functional
T2 sequence (P61088 whole entry): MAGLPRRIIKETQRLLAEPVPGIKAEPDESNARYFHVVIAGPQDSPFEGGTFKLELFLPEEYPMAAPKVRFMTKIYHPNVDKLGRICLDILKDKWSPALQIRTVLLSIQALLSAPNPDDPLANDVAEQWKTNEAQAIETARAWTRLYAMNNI

[2] = biological target: T2, Ubiquitin-conjugating enzyme E2 N; format: functional; remark: listed apart in the source
Bcl-2-related protein A1 = biological target: T3, Bcl-2-related protein A1 (Mus musculus, UniProt Q07440); format: functional;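 also: confirmatory dose–response counterscreen on Bfl-1, used to check hits from a UBC13 polyubiquitin inhibitor campaign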
T3 sequence (Q07440 whole entry): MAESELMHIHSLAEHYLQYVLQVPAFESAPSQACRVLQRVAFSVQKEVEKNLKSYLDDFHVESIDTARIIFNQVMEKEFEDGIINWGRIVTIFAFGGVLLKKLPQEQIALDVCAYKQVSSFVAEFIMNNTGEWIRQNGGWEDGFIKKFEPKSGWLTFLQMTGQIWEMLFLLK

[3] = biological target: Alkaline phosphatase, placental type (Homo sapiens, UniProt P05187); experiment: human placental alkaline phosphatase inhibition – biochemical, luminescence, confirmation (AID 1512); format: functional
Alkaline phosphatase, placental type, sequence (P05187 whole entry): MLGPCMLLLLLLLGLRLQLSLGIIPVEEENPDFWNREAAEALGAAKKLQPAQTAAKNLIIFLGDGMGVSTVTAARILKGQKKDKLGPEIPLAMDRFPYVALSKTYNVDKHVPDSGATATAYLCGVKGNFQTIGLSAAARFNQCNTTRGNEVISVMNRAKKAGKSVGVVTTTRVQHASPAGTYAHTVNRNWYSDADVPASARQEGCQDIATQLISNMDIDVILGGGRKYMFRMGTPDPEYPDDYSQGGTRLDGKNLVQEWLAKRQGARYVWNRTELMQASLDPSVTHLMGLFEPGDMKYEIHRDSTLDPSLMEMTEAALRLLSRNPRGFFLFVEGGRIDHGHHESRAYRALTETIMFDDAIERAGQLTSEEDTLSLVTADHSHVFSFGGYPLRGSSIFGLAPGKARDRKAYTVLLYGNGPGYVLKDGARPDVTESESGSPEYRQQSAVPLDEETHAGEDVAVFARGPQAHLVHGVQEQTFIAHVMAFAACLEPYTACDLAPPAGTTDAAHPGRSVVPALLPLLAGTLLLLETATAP

[4] = biological target: DNA dC->dU-editing enzyme APOBEC-3A (Homo sapiens, UniProt P31941); experiment: Dose Response confirmation of small molecule APOBEC3A DNA Deaminase Inhibitors via a fluorescence-based single-stranded DNA deaminase assay. [Related pubchem assays (depositor defined):AID493011, AID493024]; format: functional
DNA dC->dU-editing enzyme APOBEC-3A, sequence (P31941 whole entry): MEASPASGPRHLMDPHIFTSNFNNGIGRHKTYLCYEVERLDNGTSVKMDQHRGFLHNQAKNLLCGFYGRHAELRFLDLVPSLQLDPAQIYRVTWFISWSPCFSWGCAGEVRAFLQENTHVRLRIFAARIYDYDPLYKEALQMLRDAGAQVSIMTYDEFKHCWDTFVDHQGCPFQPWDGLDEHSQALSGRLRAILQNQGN

[5] = biological target: DNA dC->dU-editing enzyme APOBEC-3G (Homo sapiens, UniProt Q9HC16); format: functional;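 also: Dose-response counterscreen measuring inhibition of APOBEC3G DNA deaminase activity, run while confirming APOBEC3A inhibitors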
DNA dC->dU-editing enzyme APOBEC-3G, sequence (Q9HC16 whole entry): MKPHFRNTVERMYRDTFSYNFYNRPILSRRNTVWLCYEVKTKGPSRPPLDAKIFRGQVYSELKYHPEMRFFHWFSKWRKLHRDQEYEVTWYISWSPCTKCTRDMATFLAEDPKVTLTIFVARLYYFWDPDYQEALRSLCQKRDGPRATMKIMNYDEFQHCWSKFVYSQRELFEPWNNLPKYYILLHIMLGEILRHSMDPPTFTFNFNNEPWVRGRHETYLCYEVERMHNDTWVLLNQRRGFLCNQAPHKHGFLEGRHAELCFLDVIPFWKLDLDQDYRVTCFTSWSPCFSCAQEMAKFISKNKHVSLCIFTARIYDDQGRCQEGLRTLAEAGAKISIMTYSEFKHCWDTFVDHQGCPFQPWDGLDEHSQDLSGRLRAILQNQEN

T-cell = experiment: loss of vesicle association with mouse CD8+ T cells – mouse 2C CD8+ T cells, flow cytometry, dose response (AID 485284); format: functional
[6] = biological target: T4, Alkaline phosphatase, tissue-nonspecific isozyme (Homo sapiens, UniProt P05186); experiment: potency against alkaline phosphatase TNAP – biochemical, luminescent, dose response, SAR follow-up (AID 1056)
T4 sequence (P05186 whole entry): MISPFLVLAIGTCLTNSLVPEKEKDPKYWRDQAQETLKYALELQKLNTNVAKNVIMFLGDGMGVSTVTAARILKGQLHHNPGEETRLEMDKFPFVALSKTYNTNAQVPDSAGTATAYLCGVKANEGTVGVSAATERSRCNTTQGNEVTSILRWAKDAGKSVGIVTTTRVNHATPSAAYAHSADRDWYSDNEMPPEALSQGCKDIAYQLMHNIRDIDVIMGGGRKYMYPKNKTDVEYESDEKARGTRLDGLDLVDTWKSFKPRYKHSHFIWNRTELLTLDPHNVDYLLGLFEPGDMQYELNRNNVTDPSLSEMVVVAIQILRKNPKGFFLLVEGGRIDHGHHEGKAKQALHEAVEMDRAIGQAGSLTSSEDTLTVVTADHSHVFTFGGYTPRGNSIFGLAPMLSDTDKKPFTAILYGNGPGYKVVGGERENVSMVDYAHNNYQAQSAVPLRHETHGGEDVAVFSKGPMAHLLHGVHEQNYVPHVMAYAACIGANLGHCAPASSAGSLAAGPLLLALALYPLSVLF

Cytochrome P450 2D6 = Cytochrome P450 2D6 (Homo sapiens, UniProt P10635);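 also: CYP2D6 member of a cytochrome P450 panel assay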
Cytochrome P450 2D6, sequence (P10635 whole entry): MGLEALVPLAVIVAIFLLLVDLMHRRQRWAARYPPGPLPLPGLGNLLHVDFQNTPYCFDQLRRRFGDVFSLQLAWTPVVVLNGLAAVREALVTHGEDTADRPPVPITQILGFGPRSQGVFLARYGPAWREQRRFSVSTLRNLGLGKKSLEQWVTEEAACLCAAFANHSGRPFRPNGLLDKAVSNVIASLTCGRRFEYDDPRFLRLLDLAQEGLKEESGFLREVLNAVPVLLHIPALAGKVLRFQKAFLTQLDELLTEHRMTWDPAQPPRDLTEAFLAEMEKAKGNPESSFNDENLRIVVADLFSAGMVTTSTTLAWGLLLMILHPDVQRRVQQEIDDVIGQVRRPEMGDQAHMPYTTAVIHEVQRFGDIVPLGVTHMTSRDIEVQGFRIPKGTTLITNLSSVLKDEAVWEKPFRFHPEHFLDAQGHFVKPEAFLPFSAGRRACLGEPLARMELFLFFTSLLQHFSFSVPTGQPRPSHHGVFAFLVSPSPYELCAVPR

Cytochrome P450 2C19 = Cytochrome P450 2C19 (Homo sapiens, UniProt P33261); experiment: Cytochrome panel assay with activity outcomes. Panel member name: p450-cyp2c19 Compounds with AC50 equal or less than 10 uM are considered active; format: functional
Cytochrome P450 2C19, sequence (P33261 whole entry): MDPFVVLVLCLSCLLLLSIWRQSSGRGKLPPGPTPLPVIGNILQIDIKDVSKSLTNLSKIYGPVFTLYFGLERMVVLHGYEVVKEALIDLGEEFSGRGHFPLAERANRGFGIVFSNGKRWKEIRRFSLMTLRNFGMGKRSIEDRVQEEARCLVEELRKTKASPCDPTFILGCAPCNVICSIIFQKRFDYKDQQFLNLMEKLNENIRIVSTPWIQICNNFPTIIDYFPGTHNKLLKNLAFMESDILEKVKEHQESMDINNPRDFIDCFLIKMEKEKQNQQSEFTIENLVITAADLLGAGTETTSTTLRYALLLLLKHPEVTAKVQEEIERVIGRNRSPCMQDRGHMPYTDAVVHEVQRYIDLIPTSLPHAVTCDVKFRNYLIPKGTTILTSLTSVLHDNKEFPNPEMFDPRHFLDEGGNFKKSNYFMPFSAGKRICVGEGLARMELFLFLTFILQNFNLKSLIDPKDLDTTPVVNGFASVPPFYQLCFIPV

Cytochrome P450 1A2 = biological target: T5, Cytochrome P450 1A2 (Homo sapiens, UniProt P05177);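 also: PubChem cytochrome P450 panel assay, CYP1A2 panel member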
T5 sequence (P05177 whole entry): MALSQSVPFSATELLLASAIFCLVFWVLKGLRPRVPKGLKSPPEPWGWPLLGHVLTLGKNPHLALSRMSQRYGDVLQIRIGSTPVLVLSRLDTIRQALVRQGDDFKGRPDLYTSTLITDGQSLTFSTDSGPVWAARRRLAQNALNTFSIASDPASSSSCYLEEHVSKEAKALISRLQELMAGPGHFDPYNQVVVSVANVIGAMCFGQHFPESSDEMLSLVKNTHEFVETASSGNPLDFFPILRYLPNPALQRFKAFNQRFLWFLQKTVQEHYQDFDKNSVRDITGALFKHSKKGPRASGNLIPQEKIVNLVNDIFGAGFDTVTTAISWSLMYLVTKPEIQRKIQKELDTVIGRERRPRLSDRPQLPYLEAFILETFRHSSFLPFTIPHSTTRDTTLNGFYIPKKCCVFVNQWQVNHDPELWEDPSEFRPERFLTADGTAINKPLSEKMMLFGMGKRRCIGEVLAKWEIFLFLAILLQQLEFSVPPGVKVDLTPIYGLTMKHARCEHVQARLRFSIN

[7] = test system: Streptococcus sp. 'group A'; experiment: Streptococcus pyogenes SK(-)GAS viability under kanamycin – luminescence, BacTiterGlo, confirmation, counter-screen for streptokinase expression inhibitor project, dose response (AID 1900); format: functional, organism-based
Streptococcus = experiment: GAS UMAA2166 growth inhibition – luminescence, BacTiterGlo, counter-screen for streptokinase expression inhibitor project, dose response (AID 1915); format: functional, organism-based;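 also: potency for reduction of bacterial viability or growth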
Streptokinase A = biological target: T6, Streptokinase A (Streptococcus pyogenes serotype M1, UniProt P10520); experiment: viability-normalized secreted streptokinase activity reduction – plasminogen activation absorbance, OD405, dose response (AID 1914); format: functional, Streptococcus pyogenes M1 GAS;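 also: secreted streptokinase activity via plasminogen activation per viability signal from cell pellet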
T6 sequence (P10520 whole entry): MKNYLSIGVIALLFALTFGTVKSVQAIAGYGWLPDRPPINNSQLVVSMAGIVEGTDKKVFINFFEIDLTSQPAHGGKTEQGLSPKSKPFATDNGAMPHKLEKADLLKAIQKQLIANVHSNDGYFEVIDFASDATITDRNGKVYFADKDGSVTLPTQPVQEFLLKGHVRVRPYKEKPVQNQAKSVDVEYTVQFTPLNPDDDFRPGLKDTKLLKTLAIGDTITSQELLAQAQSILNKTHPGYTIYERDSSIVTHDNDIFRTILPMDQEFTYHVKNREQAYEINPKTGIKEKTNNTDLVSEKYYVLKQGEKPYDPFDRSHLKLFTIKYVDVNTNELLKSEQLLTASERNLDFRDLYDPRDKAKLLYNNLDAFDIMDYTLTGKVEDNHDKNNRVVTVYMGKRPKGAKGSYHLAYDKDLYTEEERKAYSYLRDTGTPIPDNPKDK

CAAX prenyl protease 2 = biological target: T7, CAAX prenyl protease 2 (Saccharomyces cerevisiae S288c, UniProt Q03530); format: biochemical
T7 sequence (Q03530 whole entry): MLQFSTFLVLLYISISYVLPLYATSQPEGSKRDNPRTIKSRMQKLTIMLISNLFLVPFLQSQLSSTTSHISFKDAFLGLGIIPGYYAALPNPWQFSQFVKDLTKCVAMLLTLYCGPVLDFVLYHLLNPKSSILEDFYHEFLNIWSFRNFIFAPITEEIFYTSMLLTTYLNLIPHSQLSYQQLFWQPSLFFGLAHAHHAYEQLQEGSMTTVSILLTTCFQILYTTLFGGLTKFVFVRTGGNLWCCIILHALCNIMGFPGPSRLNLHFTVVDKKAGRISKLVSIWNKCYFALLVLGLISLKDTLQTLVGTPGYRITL

Coagulation factor XII = biological target: T8, Coagulation factor XII (Homo sapiens, UniProt P00748); format: functional;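 also: activated factor XIIa alpha cleaving a fluorogenic AMC peptide substrate; inhibitor potency from loss of enzyme activity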
T8 sequence (P00748 whole entry): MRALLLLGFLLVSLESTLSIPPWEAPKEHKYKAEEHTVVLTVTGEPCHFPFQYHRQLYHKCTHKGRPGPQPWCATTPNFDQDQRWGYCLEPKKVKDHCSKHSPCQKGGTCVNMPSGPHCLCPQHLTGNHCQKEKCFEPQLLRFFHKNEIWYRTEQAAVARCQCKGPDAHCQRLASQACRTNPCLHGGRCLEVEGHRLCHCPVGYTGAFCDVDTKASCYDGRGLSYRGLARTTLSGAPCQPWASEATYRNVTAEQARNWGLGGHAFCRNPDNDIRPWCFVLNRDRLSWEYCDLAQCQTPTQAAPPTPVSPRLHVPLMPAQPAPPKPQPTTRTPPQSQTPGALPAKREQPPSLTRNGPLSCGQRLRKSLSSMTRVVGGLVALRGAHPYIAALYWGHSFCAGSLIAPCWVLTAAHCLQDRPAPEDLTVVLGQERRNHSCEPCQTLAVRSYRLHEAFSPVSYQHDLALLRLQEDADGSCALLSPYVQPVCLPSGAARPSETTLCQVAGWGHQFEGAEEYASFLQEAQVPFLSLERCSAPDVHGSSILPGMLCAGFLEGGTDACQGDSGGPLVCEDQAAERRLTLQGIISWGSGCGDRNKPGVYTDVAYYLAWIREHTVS

SUMO-activating enzyme = SUMO-activating enzyme (Homo sapiens, UniProt Q9UBT2); experiment: blockers of UBC9-mediated SUMO conjugation – biochemical, AlphaScreen, SUMOylation inhibitor project, confirmation (AID 2018); format: functional
SUMO-activating enzyme, sequence (Q9UBE0 whole entry): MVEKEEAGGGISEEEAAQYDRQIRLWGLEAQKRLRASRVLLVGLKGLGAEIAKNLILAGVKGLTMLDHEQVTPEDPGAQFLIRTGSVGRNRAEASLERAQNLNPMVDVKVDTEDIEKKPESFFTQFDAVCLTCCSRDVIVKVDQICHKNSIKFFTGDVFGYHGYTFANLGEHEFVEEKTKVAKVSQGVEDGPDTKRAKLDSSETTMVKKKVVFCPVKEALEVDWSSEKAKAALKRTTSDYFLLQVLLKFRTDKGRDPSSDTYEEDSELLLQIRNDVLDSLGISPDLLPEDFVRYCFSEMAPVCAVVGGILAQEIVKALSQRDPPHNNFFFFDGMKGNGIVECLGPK
SUMO-activating enzyme, sequence (Q9UBT2 whole entry): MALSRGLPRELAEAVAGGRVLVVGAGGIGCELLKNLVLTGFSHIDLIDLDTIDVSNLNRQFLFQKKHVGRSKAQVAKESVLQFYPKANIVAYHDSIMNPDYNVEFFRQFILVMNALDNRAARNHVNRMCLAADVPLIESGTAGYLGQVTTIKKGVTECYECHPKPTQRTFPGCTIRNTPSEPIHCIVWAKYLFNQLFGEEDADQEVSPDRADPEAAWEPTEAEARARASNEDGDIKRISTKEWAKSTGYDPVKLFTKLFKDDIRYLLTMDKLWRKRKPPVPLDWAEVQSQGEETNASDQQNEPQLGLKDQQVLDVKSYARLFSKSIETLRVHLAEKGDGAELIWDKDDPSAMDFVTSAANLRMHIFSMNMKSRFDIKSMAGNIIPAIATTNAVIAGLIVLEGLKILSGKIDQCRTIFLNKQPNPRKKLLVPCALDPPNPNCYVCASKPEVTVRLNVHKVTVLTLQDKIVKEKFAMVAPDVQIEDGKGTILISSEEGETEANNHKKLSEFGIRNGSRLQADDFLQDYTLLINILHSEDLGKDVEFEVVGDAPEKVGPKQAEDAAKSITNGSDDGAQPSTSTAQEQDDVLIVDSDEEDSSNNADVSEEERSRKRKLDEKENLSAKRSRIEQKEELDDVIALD

[8] = DRD fibroblast viability loss – cell-based, non-viral oncogenic, luminescence, dose response (AID 1934); format: functional; conditions: Homo sapiens
BJ [9] = experiment: BJ-TERT fibroblast viability loss – cell-based, RAS-independent, luminescence, dose response (AID 1933); format: functional; conditions: Homo sapiens
BJ [10] = experiment: cells; format: functional, cell-based; conditions: Homo sapiens
BJ [11] = experiment: BJ-TERT-LT-ST fibroblast viability loss – cell-based, RAS-independent, luminescence, dose response (AID 1935); format: functional; conditions: Homo sapiens;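 also: BJ fibroblasts immortalized with TERT plus LT and ST oncogenes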
Caspase-6 = biological target: T9, Caspase-6 (Homo sapiens, UniProt P55212); experiment: inhibition of CASP6 peptide cleavage – biochemical, VEID-R110 fluorescence, cherry-pick, dose response (AID 720632)
T9 sequence (P55212 whole entry): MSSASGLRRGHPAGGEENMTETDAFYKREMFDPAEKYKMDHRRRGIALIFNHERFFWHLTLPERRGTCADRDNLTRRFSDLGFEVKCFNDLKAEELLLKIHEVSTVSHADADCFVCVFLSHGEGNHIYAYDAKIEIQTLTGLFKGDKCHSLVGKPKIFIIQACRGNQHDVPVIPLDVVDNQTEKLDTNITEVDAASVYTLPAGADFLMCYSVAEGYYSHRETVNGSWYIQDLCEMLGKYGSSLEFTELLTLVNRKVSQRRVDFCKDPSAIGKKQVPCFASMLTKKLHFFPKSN

COc1ccc(C(=O)N(C)c2cc(Cl)ccc2C(=O)O)cc1
IC50 (Hexokinase): > 25 µM (inactive)

COc1ccc(C(=O)Nn2c(C)nc3ccccc3c2=O)cc1
IC50 [1]: 6.37 µM (active)
IC50 [2]: 10.6 µM (active)
IC50 (Bcl-2-related protein A1): > 20 µM (inactive)

CCCCN=C(S)NNC(=O)c1nn(C)c(C)c1Cl
IC50 [3]: > 100 µM (inactive)

CCN1C(NCCCOC(C)C)=N[C@@H](c2ccccc2)[C@H](C(=O)OC)[C@H]1C
IC50 [4]: 3.99 µM (active)
IC50 [5]: 7.19 µM (active)

COCCCN1CCc2nc(S)nc(O)c2C1
EC50 (T-cell): 0.594 µM (active)

CCCCN1C(=O)/C(=N\Nc2ccccc2C(F)(F)F)c2ccccc21
IC50 [3]: 49.7 µM (active)
IC50 [6]: 73.8 µM (active)

Cn1c(=O)c2nc(CCCCc3nc4ccccc4[nH]3)[nH]c2n(C)c1=O
AC50 (Cytochrome P450 2D6): inconclusive
AC50 (Cytochrome P450 2C19): inconclusive

Cc1nc2nc(C)n(-c3ccccc3)c2s1
IC50 [4]: 17.7 µM (active)
IC50 [5]: 6.72 µM (active)

CCN=C=NCCCN(C)C
AC50 (Cytochrome P450 2D6): inconclusive
AC50 (Cytochrome P450 1A2): 5.01 µM (inconclusive)

COc1ccc(C(=O)Nc2cnccc2C(=O)O)cc1
IC50 (Hexokinase): > 25 µM (inactive)

Cc1cc(Cl)c2oc(C(=O)N3CCN(C(=O)c4ccco4)CC3)c(C)c2c1
EC50 [7]: 3.4 µM (active)
EC50 (Streptococcus): 24.7 µM (active)
EC50 (Streptokinase A): > 150 µM (not active)
AC50 (CAAX prenyl protease 2): 21.7 µM (active)

COc1ccc(CCNC(=O)CCn2c(=O)c3ccccc3n(CC(=O)NCC3CCCO3)c2=O)cc1OC (configuration not stated)
IC50 (Coagulation factor XII): > 50 µM (inactive)

O=C(N/N=C/c1ccc([N+](=O)[O-])o1)c1cc(-c2ccc(-c3ccccc3)cc2)nc2ccccc12
IC50 (SUMO-activating enzyme): 15.4 µM (active)
EC50 [8]: 8.03 µM (inconclusive)
EC50 (BJ [9]): 9.46 µM (inconclusive)
EC50 (BJ [10]): 4.52 µM (inconclusive)
EC50 (BJ [11]): 11.2 µM (active)

CCOc1ncccc1C(=O)OCC(=O)Nc1ccc(C(N)=O)cc1
IC50 (Coagulation factor XII): > 50 µM (inactive)

Cc1ccc(N2CC(C(=O)NC3=NCCS3)CC2=O)cc1 (configuration not stated)
EC50 (T-cell): 22.1 µM (active)

O=C(O)c1ccc2c3c(cccc13)C(=O)N(c1ccccc1)C2=O
AC50 (Caspase-6): 11.9 µM (active)
IC50 [4]: 14 µM (active)
IC50 [5]: 37.5 µM (active)

COc1ccc(N(C(=O)c2snc(C(N)=O)c2N)C(C(=O)NC2CCCC2)c2ccco2)cc1OC (configuration not stated)
IC50 [1]: 7.43 µM (active)
IC50 [2]: 12 µM (active)
IC50 (Bcl-2-related protein A1): > 20 µM (inactive)

O=C1Nc2ccccc2/C1=C\NCCc1ccc(O)c(O)c1
IC50 [3]: 0.374 µM (active)
IC50 [6]: 2.54 µM (active)
